According to publication PMC10485906, “Development of a Dihydroquinoline–Pyrazoline GluN2C/2D-Selective Negative Allosteric Modulator of the N-Methyl-D-aspartate Receptor” (ACS Chemical Neuroscience, 2023):
Several values for one entry are separate records, joined by “and”; a condition that tells them apart may be missing. Identical values can stand only once. Marks after values point to notes of the source that are not given here.

What was measured:
[1] = Liver microsome stability, human; assay type: in vitro ADME; settings: for microsomal CLint at 3 μM: human liver microsomes; for half-life at 3 μM / remaining at 0.5 h, 3 µM: liver microsomes; for half-life at 3 μM: incubation up to 30 min, read-out: liver microsome stability T1/2, human; for remaining at 0.5 h, 3 µM: over the assay time course (30 min), read-out: % remaining, human LMs
Description: Human liver microsomes (HLMs, 20 mg/mL) and CD-1 mouse liver microsomes (MLMs, 20 mg/mL) were purchased from Xenotech. NADPH was purchased from Sigma-Aldrich and prepared in 10 mM stock solutions of distilled H2O (Invitrogen UltraPure). Verapamil and diphenhydramine were both purchased from Sigma-Aldrich and served as positive controls for HLM and MLM stability, respectively. Test compounds and positive controls were initially dissolved in DMSO to make 10 mM stock solutions. Sample solutions were then further diluted in 70% MeOH/H2O or 100% MeCN to 500 μM. Next, the reactions were prepared by mixing human or mouse liver microsomes (55 μL) with potassium phosphate buffer (100 mM, […]) in 1.5 mL Eppendorf tubes. The test compounds (6.6 μL of 500 μM solution) were subsequently added to the suspensions, and the reaction mixtures were incubated at 37 °C for 5 min. Afterward, the liver microsome reactions were initiated with 110 μL of 10 mM NADPH and further incubated at 37 °C for the designated time course of the study. This procedure provided experiments with a final volume of 1100 μL (<0.6% organic solvent content), a concentration for HLMs and MLMs of 1 mg/mL, and a final test compound concentration of 3 μM. Aliquots (100 μL) were removed from each reaction mixture in duplicate at 0, 5, 10, 15, and 30 min time intervals and quenched with 100 μL of cold internal standard solution (ISTD, 2 μM 7-ethoxy-d5-coumarin in MeOH or MeCN). Quenched aliquots were then centrifuged at 12 500 g for 5–10 min, and the resulting supernatants were withdrawn and placed in LC-MS vials to be analyzed by LC-MS/MS (Agilent G6460C QQQ MS coupled with an Infinity II 1260 HPLC). Each test compound was run in tandem with positive and negative control experiments for quality assurance. Positive control reactions were conducted at a final volume of 550 μL for a single run at each time point. Lastly, the negative control experiment was conducted with test compounds and liver microsomes in the absence of NADPH (150 μL) and analyzed at the 30 min time point.
For both LM and plasma assays, each data point was analyzed in triplicate using between blank washes to avoid carry over and to equilibrate the column for the subsequent runs. Averages of these triplicates for individual compounds at each time point were then normalized to the data at 0 min, representing 100% of the test compound remaining or 0% metabolism. Half-lives (t1/2) were calculated by plotting ln of % test compound remaining versus time and performing linear regression to determine slope. Slope = −k and t1/2 = 0.693/k for first-order kinetics (see Figures S5 and S6 for a representative example).

[2] = target: T1, GluN1/GluN2B (Rattus norvegicus, UniProt P35439+Q00960); assay: Two-electrode voltage-clamp recordings, Xenopus laevis oocytes, GluN1/GluN2B; assay type: cell-based; settings: 100 μM glutamate, 30 μM glycine; for IC50: read-out: IC50 GluN2B [95% CI]; for remaining activity at 30 µM: 30 μM test compound, mean ± SEM, read-out: I 30 μM / I control GluN2B
T1 construct: GluN2B (NM_012574.1), GluN2C (NM_012575.3), and GluN2D (NM_022797.2) were provided by; expressed in transfected cells; host or cells: Xenopus laevis oocytes (cRNA injection)
Description: (§1) All target compounds were evaluated for NMDAR antagonism using two-electrode voltage-clamp recordings from Xenopus laevis oocytes coexpressing recombinant GluN1 and GluN2A-D subunits (Table 1).[32],[42],[33] All analogues were assessed as either a racemic (2b, 2e–2r) or diastereomeric (2d) mixture to simplify purification and streamline in vitro analysis. […] Moreover, as illustrated by the significant loss of NMDAR activity observed with nitrile 2e, the DQP allosteric site necessitated an H-bond donor/acceptor relationship at the carboxylate position. […] The loss of NMDAR activity observed with the trifluoro analogue 2j (Table S1) reinforced the necessity for an H-bond donor/acceptor relationship to maintain allosteric binding and established that fluorine substitution alone is ineffective. […] A single methyl substitution of the amide in compound 2q improved selectivity against GluN2A and had similar potency as 2a, whereas dual methyl substitution reduced potency (2r). We expect that this is likely due to the ability of the […] of the amide to accept hydrogen bonds while the amide can readily donate a proton.
(§2) Unfertilized Xenopus laevis oocytes were obtained from Ecocyte (Austin, TX), or ovaries were purchased from Xenopus 1 (Dexter, MI) and oocytes prepared as previously described.[42],[47] Two-electrode voltage-clamp recordings were performed on oocytes expressing recombinant rat GluN1/GluN2A, GluN1/GluN2B, GluN1/GluN2C, or GluN1/GluN2D. cDNAs for rat GluN1-1a (referred to as GluN1; NCBI Reference Sequence NM_017010.2), GluN2A (NM_012573.4), GluN2B (NM_012574.1), GluN2C (NM_012575.3), and GluN2D (NM_022797.2) were provided by Dr. S. Heinemann from the Salk Institute, Dr. S. Nakanishi from Kyoto University, and Dr. P. Seeburg from the University of Heidelberg. Oocyte isolation, cRNA synthesis, and cRNA injections were performed as previously described.[32],[33],[47] Briefly, Xenopus laevis oocytes were injected with 5–10 ng of cRNA in RNase-free water with the GluN1:GluN2 ratio ranging from 1:1 to 1:5. Oocytes were incubated at 15–19 °C in Barth’s solution consisting of (in mM) 88 NaCl, 1 KCl, 2.4 NaHCO3, 10 HEPES, 0.82 MgSO4, 0.33 Ca(NO3)2, and 0.41 CaCl2 supplemented with 100 μg/mL gentamycin, 40 μg/mL streptomycin, and 50 μg/mL penicillin. Recordings were performed 2–4 days after injection with extracellular recording solution containing (in mM) 90 NaCl, 1 KCl, 10 HEPES, 0.5 BaCl2, and 0.01 EDTA at pH 7.4 adjusted with NaOH. To prevent a gradual increase in current response over the course of the experiment, some oocytes expressing GluN1/GluN2A were injected with 20–50 nL of 2–50 mM K-BAPTA. Concentration–response curves for test compounds were generated by applying a maximally effective concentration of glutamate (100 μM) and glycine (30 μM), followed by glutamate and glycine with variable concentrations of test compounds up to 30 μM. The test compounds were prepared as 20 mM stock solutions in DMSO and diluted to the final concentration in recording solution. The DMSO content was 0.05–0.5% (v/v). […] Methods for off-target analysis are given in the Supporting Information.
(§3) Confidence intervals were determined for the log(IC50). The time course of relaxation during inhibitor application or deactivation following rapid removal of NMDA or glutamate was fitted by the equation [drawing 5] 2

[3] = target: T2, GluN1/GluN2B (Rattus norvegicus, UniProt Q00960); assay: as above; assay type: cell-based; settings: mean ± SEM; for I3 μM/Icontrol GluN2B: tested at 3 μM; for I3 μM/Icontrol GluN2B / I / I control GluN2B: 100 μM glutamate, 30 μM glycine; for I / I control GluN2B: tested at 10 μM (footnote b)
T2 construct: GluN2B (NM_012574.1), GluN2C (NM_012575.3), and GluN2D (NM_022797.2) were provided by; expressed in transfected cells; host or cells: Xenopus laevis oocytes (cRNA injection)
Description: as §1, §2, §3

T2 sequence (Q00960 27-1482, other chains not shown): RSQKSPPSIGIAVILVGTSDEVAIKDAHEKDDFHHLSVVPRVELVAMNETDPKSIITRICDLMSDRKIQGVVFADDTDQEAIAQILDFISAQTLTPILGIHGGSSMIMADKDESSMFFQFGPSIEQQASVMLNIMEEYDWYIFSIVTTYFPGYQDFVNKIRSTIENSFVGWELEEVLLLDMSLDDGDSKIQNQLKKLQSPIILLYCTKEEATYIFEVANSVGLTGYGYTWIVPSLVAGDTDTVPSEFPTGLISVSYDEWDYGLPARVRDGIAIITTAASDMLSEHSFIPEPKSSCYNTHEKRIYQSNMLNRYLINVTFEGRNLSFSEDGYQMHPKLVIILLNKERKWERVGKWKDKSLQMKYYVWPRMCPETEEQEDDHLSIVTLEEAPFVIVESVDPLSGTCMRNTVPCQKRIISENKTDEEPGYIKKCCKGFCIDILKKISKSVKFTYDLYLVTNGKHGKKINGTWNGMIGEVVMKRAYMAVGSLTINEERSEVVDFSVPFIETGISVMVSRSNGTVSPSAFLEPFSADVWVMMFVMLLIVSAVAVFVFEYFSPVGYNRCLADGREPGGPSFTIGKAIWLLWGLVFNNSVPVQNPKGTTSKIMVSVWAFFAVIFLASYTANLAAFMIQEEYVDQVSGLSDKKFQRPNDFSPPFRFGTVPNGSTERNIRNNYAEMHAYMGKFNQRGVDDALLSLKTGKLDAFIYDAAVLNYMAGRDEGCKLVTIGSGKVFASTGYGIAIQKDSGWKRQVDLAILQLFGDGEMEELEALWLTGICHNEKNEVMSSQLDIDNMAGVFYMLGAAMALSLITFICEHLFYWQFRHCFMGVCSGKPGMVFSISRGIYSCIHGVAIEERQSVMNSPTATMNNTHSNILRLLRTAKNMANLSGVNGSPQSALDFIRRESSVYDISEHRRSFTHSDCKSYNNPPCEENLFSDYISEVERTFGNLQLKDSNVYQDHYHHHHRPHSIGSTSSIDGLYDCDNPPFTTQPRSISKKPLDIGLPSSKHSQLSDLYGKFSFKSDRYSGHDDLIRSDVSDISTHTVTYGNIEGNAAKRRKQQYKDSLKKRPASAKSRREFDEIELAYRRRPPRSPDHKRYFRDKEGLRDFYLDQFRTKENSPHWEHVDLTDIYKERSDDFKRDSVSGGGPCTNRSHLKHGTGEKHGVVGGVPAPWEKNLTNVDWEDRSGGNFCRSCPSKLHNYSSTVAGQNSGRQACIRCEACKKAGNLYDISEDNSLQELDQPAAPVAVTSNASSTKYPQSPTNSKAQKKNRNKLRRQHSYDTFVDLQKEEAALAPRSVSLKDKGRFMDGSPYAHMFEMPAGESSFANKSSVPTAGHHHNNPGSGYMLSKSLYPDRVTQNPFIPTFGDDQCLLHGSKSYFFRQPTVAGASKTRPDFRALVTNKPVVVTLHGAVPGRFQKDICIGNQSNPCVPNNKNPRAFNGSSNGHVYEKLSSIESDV
T1 sequence (Q00960 27-1482, other chains not shown): as above

SMILES | microsomal CLint at 3 μM [1] | half-life at 3 μM [1] | remaining at 0.5 h, 3 µM [1] | IC50 [2] | I3 μM/Icontrol GluN2B [3] | I3 μM/Icontrol GluN2B ([3]; listed as racemic 2i) | remaining activity at 30 µM [2] | I / I control GluN2B [3] | % control GluN1/GluN2B ([3]; 1 µM compound, 100 µM glutamate, 30 µM glycine)
O=C(O)CCC(=O)N1N=C(c2c(-c3ccc(Cl)cc3)c3ccccc3[nH]c2=O)CC1c1ccc(Cl)cc1 (stereo not drawn) [2a] | < 23 µL/min/mg | > 30 min | > 95% | – | – | – | – | – | –
O=C(O)CC(F)(F)C(=O)N1N=C(c2c(-c3ccc(Cl)cc3)c3ccccc3[nH]c2=O)CC1c1ccc(Cl)cc1 (stereo not drawn) [2i] | < 23 µL/min/mg | > 30 min | > 95% | 16 µM | 78 ± 2.9% and 78 ± 2.9 ^b (2,10) % | 78 ± 2.9 (2, 10) % | – | – | –
NC(=O)CC(F)(F)C(=O)N1N=C(c2c(-c3ccc(Cl)cc3)c3ccccc3[nH]c2=O)CC1c1ccc(Cl)cc1 (stereo not drawn) [2k] | < 23 µL/min/mg | > 30 min | > 90% | 3.1 µM | 28 ± 4.5 ^b (3,10) % | – | – | – | –
CCOC(=O)CC(F)(F)C(=O)N1N=C(c2c(-c3ccc(Cl)cc3)c3ccccc3[nH]c2=O)CC1c1ccc(Cl)cc1 (stereo not drawn) [2l] | 193 µL/min/mg | 3.6 min | – | – | – | – | 97 ± 2% | – | –
CC(C)OC(=O)CC(F)(F)C(=O)N1N=C(c2c(-c3ccc(Cl)cc3)c3ccccc3[nH]c2=O)CC1c1ccc(Cl)cc1 (stereo not drawn) [2m] | 173 µL/min/mg | 4 min | – | – | – | – | 88 ± 1.3% | – | –
O=C(CC(F)(F)C(=O)N1N=C(c2c(-c3ccc(Cl)cc3)c3ccccc3[nH]c2=O)CC1c1ccc(Cl)cc1)OCC1CC1 (stereo not drawn) [2n] | 289 µL/min/mg | 2.4 min | – | – | – | – | 92 ± 2.1% | – | –
CC(C)(C)COC(=O)CC(F)(F)C(=O)N1N=C(c2c(-c3ccc(Cl)cc3)c3ccccc3[nH]c2=O)CC1c1ccc(Cl)cc1 (stereo not drawn) [2o] | 187 µL/min/mg | 3.7 min | – | – | – | – | – | 94 ± 1.0% | –
O=C(CC(F)(F)C(=O)N1N=C(c2c(-c3ccc(Cl)cc3)c3ccccc3[nH]c2=O)CC1c1ccc(Cl)cc1)OCc1ccccc1 (stereo not drawn) [2p] | 105 µL/min/mg | 6.6 min | – | – | – | – | 103 ± 2.1% | – | –
CNC(=O)CC(F)(F)C(=O)N1N=C(c2c(-c3ccc(Cl)cc3)c3ccccc3[nH]c2=O)CC1c1ccc(Cl)cc1 (stereo not drawn) [2q] | 104 µL/min/mg | ≤ 7 min | – | 20 µM | – | – | – | 81 ± 8.7 ^b (3, 10) % | –
CN(C)C(=O)CC(F)(F)C(=O)N1N=C(c2c(-c3ccc(Cl)cc3)c3ccccc3[nH]c2=O)CC1c1ccc(Cl)cc1 (stereo not drawn) [2r] | 165 µL/min/mg | ≤ 7 min | – | – | – | – | – | 78 ± 4.2 ^b (4,22) % | –
O=C(O)CC(F)(F)C(=O)N1N=C(c2c(-c3ccc(Cl)cc3)c3ccccc3[nH]c2=O)C[C@H]1c1ccc(Cl)cc1 [(S)-(−)-2i] | – | – | – | 16 µM | 89 ± 6.2 (3, 18) % | – | – | – | 90 ± 3.5%
